Where no end group is shown, it is not given here. [ ]: non-standard residue; d: D form. The star is where a group is joined. FITC = O=C1OC2(c3ccc(O)cc3Oc3cc(O)ccc32)c2ccc(NC(=S)*)cc21

The subject of data set [1] is Taxol-resistant melanoma cell line (Malme3M^R-Taxol). Briefly: Wound-healing migration assay. It counts as cell-based. The note with it: 24-48 hours. As to the method: (§1) In order to examine the effects of AQTGTGKT (SEQ ID NO: 1 synthesized from L-amino acid) and D-AQTGTGKT (SEQ ID NO: 1 synthesized from D-amino acid) peptides on the migration, invasiveness, and angiogenesis inducing ability of anticancer drug-resistant cell line, the invasion assay, wound-healing migration assay, and intravital microscopy were carried out by conventional methods using Celastrol-resistant melanoma cell line (Malme3M^R).
(§2) Celastrol-resistant melanoma cell line (Malme3MR) or Taxol-resistant melanoma cell line (Malme3M^R-Taxol) was cultured in 24-well culture dishes, and wounded using a 1 ml tip by a conventional method, and then the migrating cells were counted for 24-48 hours.

In data set [2] the test system is Celastrol-resistant melanoma cell line (Malme3MR). The data set can be described thus: Wound-healing migration assay. In kind it is cell-based. The note with it: 24-48 hours. Here is the method: as §1, §2
In data set [3] the test system is angiogenesis inducing ability of Malme3M^R. Briefly: Angiogenesis, intravital microscopy. It counts as in vivo. The note with it: conditioned media of treated Malme3M^R mixed with Matrigel, injected into BALB/C mice. Here is the method:
as §1
After Celastrol-resistant melanoma cell line (Malme3M^R) was treated with AQTGTGKT (SEQ ID NO: 1 synthesized from L-amino acid) or D-AQTGTGKT (SEQ ID NO: 1 synthesized from D-amino acid) peptide, the obtained conditioned media were mixed with Matrigel and then injected into BALB/C mice, and then the mice were injected with FITC-dextran to examine the effect on angiogenesis using intravital microscopy.

Data set [4] has as its system CAGE-GSK3β, GSK3β ser9, cyclin D1, MDR1 in tumor tissues. The data set can be described thus: Western blotting and immunoprecipitation of tumor tissues. In kind it is in vivo, nude mouse. As to the method: After the above experiments, the protein expression and activation were examined. The tumor tissues were disrupted by liquid nitrogen according to a known method, reacted with a dissolution buffer on ice for 30 minutes, and centrifuged at 13,000 rpm for 15 minutes, and then the supernatant solution was collected as a protein sample. Thereafter, this protein sample was subjected to western blotting and immunoprecipitation to examine the protein expression and activation and the interconnection of proteins.

The target in data set [5] is T1, CAGE and GSK3β proteins in Malme3M^R (Homo sapiens, UniProt Q86TM3).
T1 construct: Celastrol-resistant liver cancer cell line (SNU387^R) and melanoma cell line (Malme3M^R) having high expression of CAGE; endogenous in cells; host or cells: Malme3M^R (Celastrol-resistant melanoma cell line)
The data set can be described thus: Immunoprecipitation of CAGE and GSK3β. It counts as cell-based. Here is the method:
(§3) In order to examine the intercellular migration and action mechanisms of AQTGTGKT (SEQ ID NO: 1 synthesized from L-amino acid) and D-AQTGTGKT (SEQ ID NO: 1 synthesized from D-amino acid) peptides, each of the peptides was prepared in a form of being conjugated to fluorescein isothiocyanate (FITC), and used to perform transfection, immunofluorescence, immunoprecipitation, and western blotting by known methods.
(§4) In addition, the cell lines were transfected with AQTGTGKT (SEQ ID NO: 1 synthesized from L-amino acid) or D-AQTGTGKT (SEQ ID NO: 1 synthesized from D-amino acid) peptide, and then subjected to immunoprecipitation and western blotting.

For data set [6], the target named is T2, CAGE and GSK3β proteins in SNU387^R (Homo sapiens, UniProt Q86TM3).
T2 construct: Celastrol-resistant liver cancer cell line (SNU387^R) and melanoma cell line (Malme3M^R) having high expression of CAGE; endogenous in cells; host or cells: SNU387^R (Celastrol-resistant liver cancer cell line)
Briefly: Immunoprecipitation of CAGE and GSK3β. It counts as cell-based. Here is the method:
as §3, §4

The test system of data set [7] is GSK3β ser9 and Cyclin D1 in SNU387^R. The data set can be described thus: Western blotting of GSK3β ser9 and Cyclin D1. In kind it is cell-based. As to the method:
as §3
(§5) The same cell lines were transfected with AQTGTGKT (SEQ ID NO: 1 synthesized from L-amino acid) or FITC-AQTGTGKT (FITC-SEQ ID NO: 1) peptide, and then subjected to immunoprecipitation and western blotting.
as §4
A general note: A western blot detects proteins with antibodies after separation by electrophoresis.

Data set [8] concerns GSK3β ser9 and Cyclin D1 in Malme3M^R. Briefly: Western blotting of GSK3β ser9 and Cyclin D1. It counts as cell-based. Here is the method:
as §3, §5, §4

Data set [9] relates to Malme3M^R tumor metastasis. Briefly: Lung metastasis of anticancer drug-resistant cell line in nude mouse. It counts as in vivo. Conditions: 10 μg/mouse tail vein, 6 times every 3 days from day 4. Here is the method:
In order to examine the effect of AQTGTGKT (SEQ ID NO: 1 synthesized from L-amino acid) peptide on tumor metastatic ability of an anticancer drug-resistant cell line, long metastasis was carried out using the anticancer drug-resistant cell line and an immunodeficient mouse by a known method.
Celastrol-resistant melanoma cell line (Malme3M^R) having high expression of CAGE was injected into the tail vein of a nude mouse at 1×10^6 cells, and then the metastasis of a tumor into the lung was induced for 2-3 weeks. From day 4 after tumor cell injection, AQTGTGKT (SEQ ID NO: 1 synthesized from L-amino acid) peptide (10 μg/mouse) was injected into the tail vein in a total of 6 times every 3 days, and the lung tissue was excised and the number of tumor nodules was measured by a known method.

Data set [10] has as its system Celastrol-resistant melanoma cell line (Malme3M^R). The data set can be described thus: Western blotting of PARP and FAK cleavage. It counts as cell-based. Conditions: 1 μM peptide 24 hours, then 1 μM and 10 μM Celastrol and Taxol 1 hour, vs cell lines without peptide. As to the method:
(§6) In order to examine the effects of AQTGTGKT (SEQ ID NO: 1 synthesized from L-amino acid) or D-AQTGTGKT (SEQ ID NO: 1 synthesized from D-amino acid) peptides on the anticancer drug resistance of cancer cells, MTT assay and western blotting were conducted by a known method.
(§7) Liver cancer cell line (SNU387^R) and melanoma cell line (Malme3M^R), which show resistance to Celastrol as an anticancer drug, were transfected with 1 μM AQTGTGKT (SEQ ID NO: 1 synthesized from L-amino acid) or D-AQTGTGKT (SEQ ID NO: 1 synthesized from D-amino acid) peptide for 24 hours, respectively, and then treated with 1 μM and 10 μM Celastrol and Taxol for 1 hour.

Data set [11] deals with Celastrol-resistant liver cancer cell line (SNU387^R). The data set can be described thus: Western blotting of PARP and FAK cleavage. In kind it is cell-based. Conditions: 1 μM peptide 24 hours, then 1 μM and 10 μM Celastrol and Taxol 1 hour, vs cell lines without peptide. Here is the method: as §6, §7
Data set [12] concerns CAGE-GSK3β, GSK3β ser9, Cyclin D1 in lung tissues. The data set can be described thus: Immunoprecipitation and western blotting of lung tissues. In kind it is in vivo, nude mouse. The text has this:
After the protein was collected from the lung tissues by a conventional method, the protein expression and activation patterns were examined through immunoprecipitation and western blotting.

In data set [13] the test system is Malme3M^R tumor. Briefly: Tumorigenicity of anticancer drug-resistant cell line in nude mouse. It counts as in vivo. The note with it: 10 μg/mouse tail vein, 6 times every 3 days. Here is the method:
In order to examine that the AQTGTGKT (SEQ ID NO: 1 synthesized from L-amino acid) is a tumor-specific peptide, experiments were carried out by a known method using an anticancer drug-resistant cell line and an immune-deficient mouse.
Celastrol-resistant melanoma cell line (Malme3M^R) having high expression of CAGE was injected into the side of a nude mouse at 1×10^6 cells. When a tumor was grown to have a measurable tumor size, the tumor size was measured using a digital gauge at regular intervals, and the tumor size was calculated using a known formula (widest length×shortest length×0.5).
After the tumor was induced by the above method, AQTGTGKT (SEQ ID NO: 1 synthesized from L-amino acid) peptide (10 μg/mouse) was injected into the tail vein alone or in combination with Celastrol or Taxol anticancer drug in a total of 6 times every 3 days for 2 weeks, while the size of the tumor was measured.

Data set [14] has as its system SNU387^R. The data set can be described thus: Intracellular migration, fluorescent microscope. It counts as cell-based. Conditions: 24 hours after transfection. As to the method:
as §3
(§8) Celastrol-resistant liver cancer cell line (SNU387^R) and melanoma cell line (Malme3M^R) having high expression of CAGE were transfected with FITC-AQTGTGKT (FITC-SEQ ID NO: 1) peptide, and after 24 hours, the cell lines were examined under a fluorescent microscope.

In data set [15] the test system is Malme3M^R. The data set can be described thus: Intracellular migration, fluorescent microscope. Conditions: 24 hours after transfection. In kind it is cell-based. As to the method:
as §3, §8

Data set [16] deals with Malme3M^R tumor tissues. Briefly: Tumor-specific migration (in vivo homing). Further details: species or system immunodeficient mice. Conditions: 12 hours after tail vein injection; in vivo imaging of extracted tissues. Here is the method:
In order to examine that the AQTGTGKT (SEQ ID NO: 1 synthesized from L-amino acid) peptide is a tumor-specific peptide, experiments were carried out by a known method using FITC-AQTGTGKT (FITC-SEQ ID NO: 1) and anticancer drug-resistant cell lines and immunodeficient mice.
Celastrol-resistant melanoma cell line (Malme3M^R) having high expression of CAGE was injected into immunodeficient mice by a known method to induce tumors, and then 12 hours after FITC-AQTGTGKT (FITC-SEQ ID NO: 1) was injected into the tail vein, normal tissues (brain, heart, spleen, Liver, lung, etc.) and tumor tissues were extracted and examined using a small in vivo imaging system.

T2 sequence (Q86TM3 whole entry): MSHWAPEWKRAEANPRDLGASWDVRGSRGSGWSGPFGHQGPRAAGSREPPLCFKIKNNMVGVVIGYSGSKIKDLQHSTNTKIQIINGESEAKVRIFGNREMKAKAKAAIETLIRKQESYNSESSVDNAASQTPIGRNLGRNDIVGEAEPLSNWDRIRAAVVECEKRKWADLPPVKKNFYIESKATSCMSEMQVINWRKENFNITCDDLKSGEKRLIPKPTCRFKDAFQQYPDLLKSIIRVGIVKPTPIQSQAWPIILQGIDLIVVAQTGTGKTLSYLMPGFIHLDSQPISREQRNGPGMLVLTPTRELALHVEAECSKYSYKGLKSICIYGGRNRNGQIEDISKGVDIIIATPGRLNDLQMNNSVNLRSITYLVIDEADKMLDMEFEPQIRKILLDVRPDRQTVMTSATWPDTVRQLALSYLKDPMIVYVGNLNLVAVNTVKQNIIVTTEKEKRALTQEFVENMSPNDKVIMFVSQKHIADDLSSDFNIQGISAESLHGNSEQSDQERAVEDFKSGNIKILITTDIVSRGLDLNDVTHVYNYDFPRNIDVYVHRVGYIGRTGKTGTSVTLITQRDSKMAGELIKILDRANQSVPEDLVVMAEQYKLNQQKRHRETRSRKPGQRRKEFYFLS
T1 sequence (Q86TM3 whole entry): as above

Take AQTGTGKT (listed as Homo sapiens): the cell migration entry in data set [1] and in data set [2] was “inhibited” each time. Moreover, the angiogenesis inducing ability result in [3] was “remarkably reduced”. Also, the “GSK3β ser9 dephosphorylation” value in [4] is “reductions”. Also, the “cyclin D1 expression” value in data set [4] was “reductions”. For the same substance, in data set [4], the “expression of MDR1” value was “inhibited”. Also, the “interconnection of CAGE and GSK3β proteins” value in [4], in data set [5], in [6] and in data set [12] was “inhibited” throughout. The “dephosphorylation of GSK3β ser9” value in [7], in data set [8] and in data set [12] was “inhibited” in each case. Further, the “expression of Cyclin D1” value in data set [7], in data set [8] and in [12] was “inhibited” each time. For the same substance, the “tumor metastasis (number of lung tumor nodules)” value in [9] was “reduced”. Besides, the “cleavage of PARP and FAK proteins” value in [10] and in [11] was “significantly observed” throughout. In addition, the “tumorigenicity (tumor size)” value in [13] (alone) is on record as “reduced”. Besides, the “anticancer drug resistance (tumor size)” value in data set [13] (in combination with Celastrol or Taxol) is listed as “reduced”.

As to “D-AQTGTGKT ([dA][dQ][dT]G[dT]G[dK][dT]; listed as Homo sapiens)”, the cell migration result in data set [1] and in [2] was “inhibited” throughout. Besides, in data set [3], the angiogenesis inducing ability entry is given as “remarkably reduced”. The “interconnection of CAGE and GSK3β proteins” value in data set [5] and in data set [6] was “inhibited” each time. Also, the “dephosphorylation of GSK3β ser9” value in data set [7] and in data set [8] was “inhibited” in each case. In addition, the “expression of Cyclin D1” value in data set [7] and in data set [8] was “inhibited” each time. In addition, the “cleavage of PARP and FAK proteins” value in data set [10] and in data set [11] was “significantly observed” throughout.

As for “FITC-AQTGTGKT ({FITC}-AQTGTGKT; listed as Homo sapiens) [AQTGTGKT peptide conjugated to fluorescein isothiocyanate (FITC)]”, the “dephosphorylation of GSK3β ser9” value in data set [7] and in data set [8] was “inhibited” in each case. The “expression of Cyclin D1” value in data set [7] and in data set [8] was “inhibited” each time. Further, the “migration of peptide into the cells” value in data set [14] and in data set [15] was “migrated into the cells” throughout. For the same substance, the “migration to tumor tissues vs normal tissues” value in data set [16] is reported as “migrated specifically to tumor tissues”.

Values taken from patent US10233221B2, “Peptide having eight amino acid sequences derived from cage and retaining anticancer activity and activity to promote anticancer drug sensitivity of anticancer drug-resistant cancer cells” (L-Base Co., Ltd., priority 2014, dated 2019).
